Positions of bridges follow the written chain, without caps; N, C: chain ends. Residues, ends and D or L forms follow the SMILES beside them.
Legend:
[1] = target: T1, GC-C receptors (Homo sapiens, UniProt P25092); test: Cyclic GMP stimulation assay in CaCo-2 monolayers (cGMP ELISA); format: cell-based; conditions: for effect of PDE inhibitor on stimulation of cGMP production by SP-304: PDE inhibitor in combination with SP-304, 30 minutes
T1 construct: host or cells: CaCo-2 human colon carcinoma cells, differentiated monolayers grown for 16 days
T1 sequence (P25092 24-1073): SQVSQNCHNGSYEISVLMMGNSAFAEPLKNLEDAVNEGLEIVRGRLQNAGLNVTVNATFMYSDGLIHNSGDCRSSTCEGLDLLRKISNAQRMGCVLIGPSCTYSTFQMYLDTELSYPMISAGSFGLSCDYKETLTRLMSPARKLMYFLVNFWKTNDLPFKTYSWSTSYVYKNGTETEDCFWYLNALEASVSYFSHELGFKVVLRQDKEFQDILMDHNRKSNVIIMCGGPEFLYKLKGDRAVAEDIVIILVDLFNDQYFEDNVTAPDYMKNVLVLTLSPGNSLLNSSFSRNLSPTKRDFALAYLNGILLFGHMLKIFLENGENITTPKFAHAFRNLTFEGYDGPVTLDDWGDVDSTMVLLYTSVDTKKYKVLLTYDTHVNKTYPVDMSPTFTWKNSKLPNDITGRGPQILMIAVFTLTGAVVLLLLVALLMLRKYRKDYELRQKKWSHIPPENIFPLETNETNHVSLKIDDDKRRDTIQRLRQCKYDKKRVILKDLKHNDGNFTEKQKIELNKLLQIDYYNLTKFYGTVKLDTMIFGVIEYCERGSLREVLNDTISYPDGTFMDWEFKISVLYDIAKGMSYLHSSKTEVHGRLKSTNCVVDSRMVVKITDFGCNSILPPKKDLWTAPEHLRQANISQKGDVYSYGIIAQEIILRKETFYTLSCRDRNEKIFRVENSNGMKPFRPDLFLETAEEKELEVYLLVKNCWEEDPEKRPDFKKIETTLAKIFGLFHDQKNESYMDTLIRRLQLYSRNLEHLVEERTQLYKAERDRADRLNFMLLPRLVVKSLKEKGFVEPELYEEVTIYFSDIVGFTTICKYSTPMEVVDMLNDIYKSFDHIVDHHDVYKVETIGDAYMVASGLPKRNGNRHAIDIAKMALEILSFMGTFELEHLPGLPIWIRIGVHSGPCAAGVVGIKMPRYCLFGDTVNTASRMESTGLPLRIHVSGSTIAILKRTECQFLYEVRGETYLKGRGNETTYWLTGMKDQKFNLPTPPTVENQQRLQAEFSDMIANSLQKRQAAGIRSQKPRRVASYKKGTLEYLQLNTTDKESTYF
Method: (§1) CaCo-2, human colon carcinoma cells, were obtained from American Type Culture Collection (ATCC) and cultured in DMEM medium containing 10% fetal bovine serum, 1% penicillin-streptomycin, 2 mM L-glutamine, 1% non-essential-amino acids. Cells were fed fresh medium every third day and grown for 16-21 days to form completely differentiated monolayer. Fully differentiated CaCo-2 cells are known to express high density of GC-C receptors.
Biological activity of the GCRA peptides was assayed as previously reported (5). Briefly, 16 days grown monolayers of CaCo-2 cells in 24-well plates were washed twice with 250 μl of DMEM containing 50 mM HEPES (pH 7.4), pre-incubated at 37° C. for 10 min with 250 μl of DMEM containing 50 mM HEPES (pH 7.4) and 1 mM isobutylmethylxanthine (IBMX), followed by incubation with GCRA peptides (0.1 nM to 10 μM) for 30 min. The medium was aspirated, and the reaction was terminated by the addition of 3% perchloric acid. Following centrifugation, and neutralization with 0.1 N NaOH, the supernatant was used directly for measurements of cGMP using an ELISA kit (Caymen Chemical, Ann Arbor, Mich.)
Monolayers were treated […] of serum free DMEM for 30 minutes with either SP-304 alone or in combination with phosphodiesterase inhibitors such as, 3-isobutyl-1-methylxanthine (IBMX), sulindac sulfone (SS) and zaprinast (ZAP). After the incubation, monolayer were lysed with 250 μL of 3% perchloric acid. The lysate was neutralized with 0.1 N NaOH and used for ELISA to determine the concentration of cGMP. The assay procedure was essentially the same as described (5). […] Since CaCo-2 cells overexpress phosphodiesterases (PDE), GC-C agonists are used in combination with PDE inhibitors to measure the actual stimulatory effect of GC-C agonists.

[2] = tested on: CaCo-2 cells; test: ^3H-taurocholate (bile acid) absorption by CaCo-2 monolayer; format: cell-based, human; conditions: for absorption of ^3H-taurocholate (kinetics, FIG. 4): 16-day CaCo-2 monolayers, incubation up to 60 minutes, average of three determinations; for absorption of ^3H-taurocholate (kinetics, FIG. 4) / absorption of ^3H-taurocholate (FIG. 5): 30 min pre-incubation; for absorption of ^3H-taurocholate (FIG. 5): 20-day CaCo-2 cells, 60 minutes with 1 uCi ^3H-taurocholate, quadruplets
Method: as §1
Phosphatidyl choline was dissolved in ethanol to make 50 mM stock solution. Calculated volume of the stock solution of phosphatidyl choline was mixed with 3H-taurocholate in a plastic tube and dried under argon gas at 80° C. The dried material was dissolved in transport buffer to get the final concentration of phosphatidyl choline (0.5 mM) and of 3H-taurocholate 10 μCi/mL.
CaCo-2 cells were grown in 24-well plates for 16 days to allow complete monolayer formation and cell differentiation. Completely differentiated monolayers were then pre-incubated with 250 μL of the transport buffer (HEPES 25 mM, NaCl 120 mM, KCl 5.4 mM, CaCl2 1.8 mM and MgSO4, pH 7.5) containing either SP-304 alone or in combination with PDE inhibitors such as IBMX, SS and ZAP. The monolayers were pre-incubated with transport buffer containing either of the following: vehicle (control), 1 mM 8-bromo-cGMP, 500 μM SS, 500 μM ZAP, 1 μM SP-304, 0.1 μM SP-304+500 μM SS and 1 μM SP-304+500 μM ZAP. After the indicated pre-incubation time, 50 μL, of ^3H-taurocholate (1 μCi) cocktail was added and cells were incubated for an additional 60 minutes, washed three times with ice cold PBS. Cells were lysed with 0.5 N NaOH for 4 hours and radioactivity in the lysate was counted in a scintillation counter.
16-day grown monolayers of CaCo-2 cells in 24-well plates were pre-incubated with transport buffer containing the compounds as indicated in the figure for 30 minutes. After the pre-incubation, 1 μCi of ^3H-taurocholate cocktail was added in each well and cells were further incubated for 60 minutes. Cells were washed three times with ice cold PBS and lysed with 0.5 N NaOH and lysates were counted for radioactivity in a scintillation counter. Results are expressed as an average of three determinations. Results on the x-axis were plotted in logarithmic scale.
After the pre-incubation, 1 μCi of ^3H-taurocholate cocktail was added in each well and cells were further incubated for 60 minutes. Cells were washed three times with ice cold PBS and lysed with 0.5 N NaOH and lysates were counted for radioactivity in a scintillation counter. This experiment was run in quadruplets and results are expressed as mean±SD.
The procedure used in this experiment was essentially the same except that a lower concentration of ZAP (250 μM) in combination experiments with SP-304.

For CCCOc1ccccc1-c1nc2nn[nH]c2c(=O)[nH]1 [ZAP, zaprinast], the “effect of PDE inhibitor on stimulation of cGMP production by SP-304” value (“effect of PDE inhibitor” below) [1] was “synergistic effects” and the “cGMP production among the PDE inhibitors combined with SP-304” value ([1]; comparison of IBMX, SS and ZAP) was “maximum production of cGMP”.

For CC(C)Cn1c(=O)n(C)c(=O)c2[nH]cnc21 [IBMX, 3-isobutyl-1-methylxanthine], the “effect of PDE inhibitor” value [1] was “synergistic effects”.

With Nc1nc2c(nc(Br)n2[C@@H]2O[C@@H]3COP(=O)(O)O[C@H]3[C@H]2O)c(=O)[nH]1 [8-Br-cGMP, 8-bromo-cGMP] the “absorption of ^3H-taurocholate (kinetics, FIG. 4)” value [2] was “inhibited” and the “absorption of ^3H-taurocholate (FIG. 5)” value [2] was “inhibited”.

With CC(C)C[C@H](NC(=O)[C@@H]1CSSC[C@@H]2NC(=O)[C@H](CC(C)C)NC(=O)[C@H](CCC(=O)O)NC(=O)[C@@H](NC(=O)[C@H](CCC(=O)O)NC(=O)[C@H](CC(=O)O)NC(=O)[C@@H](N)CC(N)=O)CSSC[C@H](NC(=O)[C@H](C)NC(=O)[C@H](C(C)C)NC(=O)[C@H](CC(N)=O)NC(=O)[C@H](C(C)C)NC2=O)C(=O)N[C@@H]([C@@H](C)O)C(=O)NCC(=O)N1)C(=O)O [SP-304, Asn^1-Asp^2-Glu^3-Cys^4-Glu^5-Leu^6-Cys^7-Val^8-Asn^9-Val^10-Ala^11-Cys^12-Thr^13-Gly^14-Cys^15-Leu^16] (H-NDECELCVNVACTGCL-OH; disulfide 4-12, 7-15; N-terminus assumed) the “absorption of ^3H-taurocholate (kinetics, FIG. 4)” value [2] was “inhibited”, the “absorption of ^3H-taurocholate (FIG. 5)” value [2] was “inhibited” and the “inhibition in absorption of ^3H-taurocholate (FIG. 6), SP-304 alone” value ([2]; SP-304 0.1 uM alone) was “did not produce much inhibition”. For the same compound, the “inhibition of ^3H-taurocholate absorption (FIG. 6), SP-304 in combination with ZAP” value ([2]; SP-304 0.1 uM in combination with ZAP 250 uM, compared with SP-304 alone) was “greater effect on inhibition” and the “cGMP production by CaCo-2 cells in response to stimulation” value ([1]; serum free DMEM, 30 minutes, cGMP by ELISA) was “produced cGMP in response to stimulation”.

CC1=C(CC(=O)O)c2cc(F)ccc2/C1=C\c1ccc(S(C)(=O)=O)cc1 [SS, sulindac sulfone] was tested, and the “effect of PDE inhibitor” value [1] was “synergistic effects”.

Reference: US9814752B2, “Agonists of guanylate cyclase useful for the treatment of hypercholesterolemia, atherosclerosis, coronary heart disease, gallstone, obesity and other cardiovascular diseases” (SYNERGY PHARMACEUTICALS, INC., priority 2007, dated 2017)
